{"source": "patent US20030096237A1", "about": "“Determination of the ability of patients to respond to a tumor treatment” (priority 2000, published 2003)", "tested_on": "CNCM I-2546", "assay": "oligonucleotide array analysis of IFN-α modulated gene expression", "format": "cell-based, human", "experimental": "All these cell lines were cultured in RPMI medium supplemented with 10% FCS, glutamine (2 mM), sodium pyruvate (1 mM), non-essential amino acids and HEPES buffer (10 mM) (all from GIBCO Life Sciences, Paisley, UK). When confluent, the cells were passaged by trypsinization.\nCultured melanoma cells were harvested by scraping and total cellular RNA was extracted. 10 μg from each sample were used directly as templates for cDNA synthesis using a commercial kit (Roche Molecular Biochemicals, Rotkreuz, Switzerland). The T7 promoter sequence incorporated into the cDNA synthesis primer allowed template amplification and biotin labeling by in vitro transcription using a commercial kit (Affymetrix, Santa Clara, Calif.). After alkaline heat fragmentation […] was hybridised to the array (Affymetrix, Santa Clara, Calif.) and all subsequent steps were performed following standard procedures as supplied with the arrays. Raw data were collected with a confocal laser scanner (Hewlett Packard, Palo Alto, Calif.) using GeneChip software v3.1 (Affymetrix, Santa Clara, Calif.).\nRaw data were normalized based on the total chip signal obtained upon hybridisation of ME15 cell line cDNA. This array was selected because: i) the 5′/3′ intensity ratio of control genes was smaller than 3; ii)>25% of the genes are called “present” by Genechip; iii) the image appearance is homogeneous with low background and no sign of mechanical chip damage.\nThe normalized average difference (nAD) between the signals of the perfect and of the mismatch probesets for each gene was used as the expression level of a given gene. At least one nAD value in a pairwise comparison of data has to exceed 50 to be included. Based on nAD, change factors related to IFN-α exposure were also calculated. Negative nAD values were set to 20 in order to avoid the calculation of artificially high modifications. In order to exclude artefacts, only genes with robust change factors, greater than 2-fold, were included in the analysis. […] Genes were clustered according to their mode of regulation.\nTotal cellular RNA was extracted from the sensitive and resistant melanoma cell lines identified above, reverse transcribed and processed for hybridization to an oligonucleotide array (Hu6800FL, PN 900183) containing probe sets derived from 7000 full-length human genes. Expression levels for each gene were calculated as normalized average difference (nAD, see materials and methods).\nPatterns of genes expressed in IFN-α sensitive and resistant melanoma cell lines were investigated upon 48 hour culture in the presence of IFN-α. CNCM I-2546 and CNCM I-2545 were studied in detail.\nIn Table 2 below, CNCM I-2546 and CNCM I-2545 cultured for 48 hours in the absence or in the presence of 100 U/ml IFN-α were used to assay cytokine modulated gene expression as matched with data obtained in fibrosarcoma cells. This analysis yielded six clusters of genes. […] Data are presented as average difference of signal intensity between match and mismatch probesets.\nIn Table 3 below, CNCM I-2546 and CNCM I-2545 cell lines cultured for 48 hours in the absence or in the presence of 100 U/ml IFN-α were used to identify novel cytokine induced genes whose expression was not found to be modulated in fibrosarcoma cells. Cluster 1 includes genes inducible in the CNCM I-2546 sensitive but not in the CNCM I-2545 resistant cell line. Cluster 2 comprises genes inducible in both lines. Data are presented as average difference of signal intensity between match and mismatch probesets.", "key": {"[1]": {"conditions": "CNCM I-2546, IFN-α 100 U/ml 48 hours"}}}
{"substance": "IFN-α", "values": [{"measurement": "change factor (CF) D28137 bst-2", "setting": "[1]", "result": 9.89}, {"measurement": "change factor (CF) D32050 alanyl-trna synthetase", "setting": "[1]", "result": 19.33}, {"measurement": "change factor (CF) D49824 hla-b null allele", "setting": "[1]", "result": 5.42}, {"measurement": "change factor (CF) D50914 EST", "setting": "[1]", "result": 2.26}, {"measurement": "change factor (CF) D78132 rheb gene, ras-related gtp binding protein gene", "setting": "[1]", "result": 1.58}, {"measurement": "change factor (CF) HG658 major histocompatibility complex, class 1 c", "setting": "[1]", "result": 9.85}, {"measurement": "change factor (CF) HG1612 macmarcks", "setting": "[1]", "result": 2.59}, {"measurement": "change factor (CF) HG2917 major histocompatibility complex, class i, e", "setting": "[1]", "result": 4.53}, {"measurement": "change factor (CF) J00105 beta-2 microglobulin gene", "setting": "[1]", "result": 4.86}, {"measurement": "change factor (CF) J00212 leukocyte interferon (ifn-alpha)", "setting": "[1]", "result": "−1.82"}, {"measurement": "change factor (CF) J03909 gamma-interferon-inducible protein (ip-30)", "setting": "[1]", "result": 1.85}, {"measurement": "change factor (CF) J04164 interferon-inducible protein 27-sep", "setting": "[1]", "result": 102.3}, {"measurement": "change factor (CF) J04182 lysosomal membrane glycoprotein-1 (lamp1)", "setting": "[1]", "result": 1.69}, {"measurement": "change factor (CF) J04444 cytochrome c-1 gene", "setting": "[1]", "result": 3.16}, {"measurement": "change factor (CF) K01900 lymphocyte interferon alpha type 201", "setting": "[1]", "result": 0.55}, {"measurement": "change factor (CF) K03515 neuroleukin", "setting": "[1]", "result": 3.37}, {"measurement": "change factor (CF) L07633 interferon-gamma", "setting": "[1]", "result": 1.52}, {"measurement": "change factor (CF) L13210 mac-2 binding protein", "setting": "[1]", "result": 3.54}, {"measurement": "change factor (CF) L35249 vacuolar h + -atpase mr 56,000 subunit (ho57)", "setting": "[1]", "result": 1.47}, {"measurement": "change factor (CF) L37043 casein kinase i epsilon", "setting": "[1]", "result": 21.05}, {"measurement": "change factor (CF) L40387 thyroid receptor interactor (trip14)", "setting": "[1]", "result": 3.25}, {"measurement": "change factor (CF) L42243 ifnar2 gene (interferon receptor)", "setting": "[1]", "result": "−1.3"}, {"measurement": "change factor (CF) M13755 interferon-induced 17-kda/15-kda protein", "setting": "[1]", "result": 34.8}, {"measurement": "change factor (CF) M19650 2′,3′-cyclic nucleotide 3prime-phosphodiesterase", "setting": "[1]", "result": 3.89}, {"measurement": "change factor (CF) M30818 interferon-induced cellular resistance mediator protein", "setting": "[1]", "result": "−3.88"}, {"measurement": "change factor (CF) M31013 nonmuscle myosin heavy chain (nmhc)", "setting": "[1]", "result": 2.34}, {"measurement": "change factor (CF) M34338 spermidine synthase", "setting": "[1]", "result": 2.29}, {"measurement": "change factor (CF) M60784 ul snrnp-specific protein", "setting": "[1]", "result": 8}, {"measurement": "change factor (CF) M65028 heterogeneous nuclear ribonucleoprotein a/b", "setting": "[1]", "result": 1.13}, {"measurement": "change factor (CF) M79462 pml-1", "setting": "[1]", "result": "−1.15"}, {"measurement": "change factor (CF) M92642 alpha-1 type xvi collagen (col16a1)", "setting": "[1]", "result": 0}, {"measurement": "change factor (CF) M94880 mhc class i (hla-a*8001)", "setting": "[1]", "result": 3.61}, {"measurement": "change factor (CF) M97935 transcription factor isgf-3", "setting": "[1]", "result": 13.8}, {"measurement": "change factor (CF) M98343 amplaxin (ems1)", "setting": "[1]", "result": 6.05}, {"measurement": "change factor (CF) S81914 iex-1 = radiation-inducible immediate-early gene", "setting": "[1]", "result": 9.06}, {"measurement": "change factor (CF) U01824 glutamate/aspartate transporter", "setting": "[1]", "result": 3.55}, {"measurement": "change factor (CF) U09579 melanoma differentiation associated (mda-6)", "setting": "[1]", "result": 3.35}, {"measurement": "change factor (CF) U18009 chromosome 17q21 clone lf113", "setting": "[1]", "result": 2.93}, {"measurement": "change factor (CF) U18018 ela enhancer binding protein (ela-f)", "setting": "[1]", "result": 2.18}, {"measurement": "change factor (CF) U22970 16-jun gene, interferon-inducible peptide (6-16)", "setting": "[1]", "result": 53.95}, {"measurement": "change factor (CF) U41515 dss1", "setting": "[1]", "result": "−1.04"}, {"measurement": "change factor (CF) U47025 fetal brain glycogen phosphorylase b", "setting": "[1]", "result": 3.79}, {"measurement": "change factor (CF) U50327 protein kinase c substrate 80k-h gene (prkcsh)", "setting": "[1]", "result": 2.9}, {"measurement": "change factor (CF) U50648 interferon-inducible rna-dependent protein kinase (pkr)", "setting": "[1]", "result": 2.55}, {"measurement": "change factor (CF) U51127 interferon regulatory factor 5", "setting": "[1]", "result": 4.8}, {"measurement": "change factor (CF) U52513 rig-g", "setting": "[1]", "result": 0.96}, {"measurement": "change factor (CF) U53830 interferon regulatory factor 7a", "setting": "[1]", "result": 10.85}, {"measurement": "change factor (CF) U61263 acetolactate synthase homolog", "setting": "[1]", "result": 2.09}, {"measurement": "change factor (CF) U65579 mitochondrial nadh dehydrogenase-ubiquinone", "setting": "[1]", "result": 2.43}, {"measurement": "change factor (CF) U65932 extracellular matrix protein 1 (ecm1)", "setting": "[1]", "result": 2.02}, {"measurement": "change factor (CF) U69126 fuse binding protein 2 (fbp2)", "setting": "[1]", "result": 2.92}, {"measurement": "change factor (CF) U70063 human acid ceramidase", "setting": "[1]", "result": 1.57}, {"measurement": "change factor (CF) U72206 guanine nucleotide regulatory factor (lfp40)", "setting": "[1]", "result": 3.06}, {"measurement": "change factor (CF) U72882 interferon-induced leucine zipper protein (ifp35)", "setting": "[1]", "result": 24.1}, {"measurement": "change factor (CF) U78525 human eukaryotic translation initiation factor (eif3)", "setting": "[1]", "result": 1.14}, {"measurement": "change factor (CF) U91316 acyl-coa thioester hydrolase", "setting": "[1]", "result": 4.01}, {"measurement": "change factor (CF) X04412 plasma gelsolin", "setting": "[1]", "result": 2.48}, {"measurement": "change factor (CF) X07730 prostate specific antigen", "setting": "[1]", "result": 5.6}, {"measurement": "change factor (CF) X15949 interferon regulatory factor-2 (irf-2)", "setting": "[1]", "result": "−2.35"}, {"measurement": "change factor (CF) X57351 1-8d gene from interferon-inducible gene family", "setting": "[1]", "result": 113.8}, {"measurement": "change factor (CF) X57522 ring4 cdna", "setting": "[1]", "result": 3.85}, {"measurement": "change factor (CF) X67325 p27", "setting": "[1]", "result": 19.5}, {"measurement": "change factor (CF) X70848 protein phosphatase 1, catalytic subunit", "setting": "[1]", "result": 2.03}, {"measurement": "change factor (CF) X76538 mpv17", "setting": "[1]", "result": 3.06}, {"measurement": "change factor (CF) X90846 mixed lineage kinase 2", "setting": "[1]", "result": "−1.46"}, {"measurement": "change factor (CF) X95325 dna binding protein a variant", "setting": "[1]", "result": 5.47}, {"measurement": "change factor (CF) X96401 rox protein", "setting": "[1]", "result": 3.21}, {"measurement": "change factor (CF) Y00264 amyloid a4 precursor", "setting": "[1]", "result": 2.42}, {"measurement": "change factor (CF) Z26491 gene catechol o-methyltransferase", "setting": "[1]", "result": 3.62}, {"measurement": "change factor (CF) Z47055 farnesyl pyrophosphate synthetase like", "setting": "[1]", "result": 1.01}, {"measurement": "change factor (CF) Z56281 interferon regulatory factor 3", "setting": "[1]", "result": 5.8}, {"measurement": "nAD D28137 bst-2", "setting": "Table 3, CNCM I-2546 (+) IFN-α 100 U/ml 48 hours, (−) 28", "result": 305}, {"measurement": "change factor (CF) D28137 bst-2", "setting": "Table 3, CNCM I-2546, IFN-α 100 U/ml 48 hours", "result": 9.89}]}
